Reference: US20260335278A1, “PHYTOCHEMICAL FORMULATIONS FOR TREATING STRESS AND ANXIETY” (GBS GLOBAL BIOPHARMA, INC., priority 2022, published 2026)
Entries after “also recorded” stand apart in the source; their conditions may differ.

tested on: zebrafish larvae; assay: Zebrafish models of stress and anxiety, overall verdict (Light/Dark Stress Response and thigmotaxis); assay type: in vivo; conditions: API used singly
Procedure: (§1) The validation process for the phytochemicals derived from Piper methysticum, other Piper plant family members, and non-Piper medicinal plants and fungi includes testing the selected phytochemical drug candidates as singles, doubles, and triples in two complementary zebrafish models of stress and anxiety. These two complementary assays are the Light/Dark Stress Response test that is illustrated in FIG. 5 (after the 90 min study of the effect of the compounds and mixtures on Baseline Activity) and the Thigmotaxis assay, as illustrated in FIG. 61A and FIG. 61B, which is also known as the wall flower effect, like the social anxiety of humans. Zebrafish larvae show a clear and distinct pattern of swimming in response to rapidly alternating light and dark conditions in the Light/Dark Response testing, which trigger a flight or fight response and darting behavior indicative of great stress and anxiety. The Light/Dark testing uses a control group to automatically track, using an automatic tracking device, the larval behavior in response to dark to light conditions. The thigmotaxis assay also uses automatic tracking and appropriate controls. In multiple embodiments additional Zebrafish larvae are given various concentrations of the selected phytochemicals from Table 1 for tracking Light/Dark Responses or Thigmotactic behavioral changes in the treated zebrafish larvae. Table 2A and Table 2B summarize the results from both assays when the individual phytochemicals are exposed to the: Baseline Activity (90 minutes in the light), Light/Dark Stress Response (5 min alternating pulses of dark and light for 30 min.), and Thigmotaxis Activity (% of time in the light center of the chamber (anxiety inducing) versus % of time near the dark (soothing) wall).
Additionally, testing is done with mixtures of these same selected phytochemicals from P. methysticum and other plants selected by our in silico analyses. The testing results are analyzed using artificial intelligence systems to rank effectiveness in reducing the Light/Dark response and thigmotactic behavior for the
The A1 enabled drug discovery platform database search data was evaluated to select the best drug candidates from: A Piper methysticum, B. within the Piper plant family (>200 Piper spp.), or C. traditional medicines to begin testing […] (API) singles, doubles, and triples in two complementary zebrafish models of anxiety light/dark startle response testing and thigmotaxis assays.
(§2) The present invention includes a process to discover new pharmaceutical medicines for the treatment of stress, anxiety and anxiety-related disorders in a human. The preclinical testing included the effects of these 14 individual phytochemicals and 300 ratio-controlled mixtures of these phytochemicals in assays measuring the behavioral stress response patterns of zebrafish larvae. Larval behavior is assessed with at least one functional assay of stress or anxiety following acute exposure to each phytochemical sample formulated. Stereotypical basal activity patterns of zebrafish will be assessed to determine the potential side effects of the phytochemical samples in a concentration dependent manner for each compound on two zebrafish models of stress and anxiety: 1) the Light/Dark Stress Response (5 min alternating pulses of light and dark) in small to med well plates (96-48 well plates), and 2) Thigmotaxis assays in large well plates with 50% of the swimming surface colored dark around the margins of the well in large (24-12 well plates) will be assessed for their efficacy in testing the phytochemicals.
The discovery methods of the present invention include testing the effects of up to 20 phytochemicals and 40 mixtures of the phytochemicals on behavioral stress response patterns of zebrafish larvae. Larval behavior was assessed with an automated video tracking system following acute exposure to each phytochemical sample. […]

Row | Molecule | Anti-Anxiety Potential?
1 | CCCCCCCCCCCCCCCC(=O)NCCO [N-palmitoyl ethanolamide (PEA), N-palmitoyl ethanolamide] | No
2 | COc1c(O)cc(O)c2c(=O)cc(-c3ccccc3)oc12 [Wogonin (hydrate), wogonin] | No
3 | O=c1cc(-c2ccccc2)oc2cc(O)c(O)c(O)c12 [bacalein] | Yes
4 | C=C1CC/C=C(\C)CC[C@@H]2[C@@H]1CC2(C)C [beta caryophyllene] | No
5 | C=CCc1ccc(OC)cc1 [methyl chavicol (4-allylanisole), 4-allylanisole] | No
6 | farnesene | Yes

same assay, conditions: vehicle 1% MeOH

Row | Molecule | Therapeutic Potential
7 | COc1c(O)cc(O)c2c(=O)cc(-c3ccccc3)oc12 [Wogonin (hydrate), wogonin] | No
8 | C=C1CC/C=C(\C)CC[C@@H]2[C@@H]1CC2(C)C [beta caryophyllene] | No
9 | C=CCc1ccc(OC)cc1 [methyl chavicol (4-allylanisole), 4-allylanisole] | No
10 | farnesene | No

same assay, conditions: vehicle not given

Row | Molecule | Therapeutic Potential
11 | CCCCCCCCCCCCCCCC(=O)NCCO [N-palmitoyl ethanolamide (PEA), N-palmitoyl ethanolamide] | No

tested on: zebrafish larvae; assay: Light/Dark Stress Response (5 min alternating pulses of dark and light for 30 min); assay type: in vivo; parameters: key to Light/Dark Stress Response: +: statistically significant increase; −−: statistically significant decrease; conditions: High
Procedure: as §1, §2
(§3) The discovery methods of the present invention include testing the effects of up to 20 phytochemicals and 40 mixtures of the phytochemicals on behavioral stress response patterns of zebrafish larvae. Larval behavior was assessed with an automated video tracking system following acute exposure to each phytochemical sample. Stereotypical basal activity patterns of larvae were assessed to determine the concentration dependent effect of each compound. A zebrafish model of thigmotaxis in large well plates (24-12 well plates) was assessed for their efficacy in testing the phytochemicals. In the discovery method, fertilized eggs were kept on a re-circulating system in baskets until use at 120 hpf (5 days). At 120 hpf, larvae were loaded into 48 well plates in buffered fish media and acclimated to the plate in a heated light incubator for 2 hours. Larvae were acutely exposed with drug or controls at a 10× concentration and the plate was quickly transferred to a behavioral tracking system. Acute behavioral run was 90 minutes (baseline activity) in the light followed by alternating 5 minute bins (total 2 hours). […]

Row | Molecule | Light/Dark Stress Response
12 | CCCCCCCCCCCCCCCC(=O)NCCO [N-palmitoyl ethanolamide (PEA), N-palmitoyl ethanolamide] | +
13 | O=c1cc(-c2ccccc2)oc2cc(O)c(O)c(O)c12 [bacalein] | −−
14 | C=C1CC/C=C(\C)CC[C@@H]2[C@@H]1CC2(C)C [beta caryophyllene] | −−
15 | C=CCc1ccc(OC)cc1 [methyl chavicol (4-allylanisole), 4-allylanisole] | +
16 | farnesene | −−

same assay, conditions: Low

Row | Molecule | Light/Dark Stress Response
17 | C=C1CC/C=C(\C)CC[C@@H]2[C@@H]1CC2(C)C [beta caryophyllene] | +

same assay, conditions: Med

Row | Molecule | Light/Dark Stress Response
18 | CCCCCCCCCCCCCCCC(=O)NCCO [N-palmitoyl ethanolamide (PEA), N-palmitoyl ethanolamide] | +
19 | O=c1cc(-c2ccccc2)oc2cc(O)c(O)c(O)c12 [bacalein] | −−

same assay, conditions: vehicle 1% MeOH

Row | Molecule | Light/Dark Stress Response (5 min light/dark pulses)
20 | COc1c(O)cc(O)c2c(=O)cc(-c3ccccc3)oc12 [Wogonin (hydrate), wogonin] | no reduction in stress response
21 | O=c1cc(-c2ccccc2)oc2cc(O)c(O)c(O)c12 [bacalein] | stress response is reduced, but sedation
22 | C=C1CC/C=C(\C)CC[C@@H]2[C@@H]1CC2(C)C [beta caryophyllene] | stress response reduced in highest
23 | C=CCc1ccc(OC)cc1 [methyl chavicol (4-allylanisole), 4-allylanisole] | no reduction in stress response, some
24 | farnesene | no reduction in stress response

same assay, conditions: vehicle not given

Row | Molecule | Light/Dark Stress Response (5 min light/dark pulses)
25 | CCCCCCCCCCCCCCCC(=O)NCCO [N-palmitoyl ethanolamide (PEA), N-palmitoyl ethanolamide] | stress response sometimes increased

tested on: zebrafish larvae; assay: Baseline activity / baseline exposure (90 min continuous light), zebrafish larvae; assay type: in vivo; parameters: key to Baseline Exposure: +: statistically significant increase; −−: statistically significant decrease; conditions: High
Procedure: as §1, §2, §3

Row | Molecule | Baseline Exposure
26 | COc1c(O)cc(O)c2c(=O)cc(-c3ccccc3)oc12 [Wogonin (hydrate), wogonin] | +
27 | O=c1cc(-c2ccccc2)oc2cc(O)c(O)c(O)c12 [bacalein] | −−
28 | C=C1CC/C=C(\C)CC[C@@H]2[C@@H]1CC2(C)C [beta caryophyllene] | +
29 | C=CCc1ccc(OC)cc1 [methyl chavicol (4-allylanisole), 4-allylanisole] | −−
30 | farnesene | +

same assay, conditions: Low

Row | Molecule | Baseline Exposure
31 | C=C1CC/C=C(\C)CC[C@@H]2[C@@H]1CC2(C)C [beta caryophyllene] | +

same assay, conditions: Med

Row | Molecule | Baseline Exposure
32 | CCCCCCCCCCCCCCCC(=O)NCCO [N-palmitoyl ethanolamide (PEA), N-palmitoyl ethanolamide] | +
33 | COc1c(O)cc(O)c2c(=O)cc(-c3ccccc3)oc12 [Wogonin (hydrate), wogonin] | +
34 | O=c1cc(-c2ccccc2)oc2cc(O)c(O)c(O)c12 [bacalein] | +
35 | C=C1CC/C=C(\C)CC[C@@H]2[C@@H]1CC2(C)C [beta caryophyllene] | +
36 | C=CCc1ccc(OC)cc1 [methyl chavicol (4-allylanisole), 4-allylanisole] | −−
37 | farnesene | +

same assay, conditions: vehicle 1% MeOH

Row | Molecule | baseline Activity (90 min light)
38 | COc1c(O)cc(O)c2c(=O)cc(-c3ccccc3)oc12 [Wogonin (hydrate), wogonin] | baseline activity not like controls; also recorded: (increased at med/high
39 | O=c1cc(-c2ccccc2)oc2cc(O)c(O)c(O)c12 [bacalein] | baseline activity not like controls; also recorded: (increased at low concentrations,; also recorded: sedating at higher concentrations)
40 | C=C1CC/C=C(\C)CC[C@@H]2[C@@H]1CC2(C)C [beta caryophyllene] | baseline activity not like controls; also recorded: (increased at all concentrations); also recorded: conc., but baseline activity is concerning
41 | C=CCc1ccc(OC)cc1 [methyl chavicol (4-allylanisole), 4-allylanisole] | baseline activity not like controls; also recorded: (decreased at high concentrations)

same assay, conditions: vehicle not given

Row | Molecule | baseline Activity (90 min light)
42 | CCCCCCCCCCCCCCCC(=O)NCCO [N-palmitoyl ethanolamide (PEA), N-palmitoyl ethanolamide] | baseline activity not like controls; also recorded: (increased at all concentrations)
